This note sets out measurements from ChEMBL document CHEMBL5352418, “Molecular networking assisted discovery and combinatorial biosynthesis of new antimicrobial pleuromutilins” (Eur J Med Chem, 2022).

Values after ≈ are worked out from the molar mass of the structure shown. Active and inactive are the calls of the source. The rule behind the calls is not given here. Bounds are passed on as bounds.

As usually defined, the MIC is the lowest concentration found to suppress growth.

For data set [1], the system named is Staphylococcus aureus. Briefly: Antibacterial activity against methicillin-resistant Staphylococcus aureus clinical isolate assessed as bacterial growth inhibition by CLSI protocol based broth microdilution method. It counts as functional. For orientation: Dilution methods test growth across graded concentrations, often in twofold steps.
The subject of data set [2] is Enterococcus faecalis. Briefly: Antibacterial activity against vancomycin-resistant Enterococcus faecalis clinical isolate assessed as bacterial growth inhibition by CLSI protocol based broth microdilution method. It counts as functional.
Data set [3] has as its system Escherichia coli. The data set can be described thus: Antibacterial activity against Escherichia coli OP50 assessed as bacterial growth inhibition at 20 uM by CLSI protocol based broth microdilution method. It counts as functional. The settings on record: read-out: GI.
The subject of data set [4] is RAW264.7. The data set can be described thus: Immunostimulatory activity in mouse RAW264.7 cells assessed as increase in cell viability at 1 uM incubated for 48 hrs by CCK-8 assay. It counts as functional.
The subject of data set [5] is RAW264.7. Briefly: Cytotoxicity activity mouse RAW264.7 cells assessed as reduction in cell viability at upto 100 uM incubated for 48 hrs by CCK-8 assay. The format is toxicity, cell-based. The settings on record: raw264.7, 48 h.
Data set [6] has as its system RAW264.7. The data set can be described thus: Immunostimulatory activity in mouse RAW264.7 cells assessed as increase in NO production at 1 uM incubated for 24 hrs by Griess method. It counts as functional, cell-based.
For data set [7], the system named is RAW264.7. Briefly: Immunostimulatory activity in mouse RAW264.7 cells assessed as increase in TNF-alpha production level at 1 uM incubated for 24 hrs by ELISA. The format is functional, cell-based.
The test system of data set [8] is RAW264.7. The data set can be described thus: Immunostimulatory activity in mouse RAW264.7 cells assessed as increase in IL-6 production level at 1 uM incubated for 24 hrs by ELISA. It counts as functional, cell-based. In general terms: ELISA stands for enzyme-linked immunosorbent assay.
Data set [9] deals with Escherichia coli. Briefly: Antibacterial activity against enteropathogenic Escherichia coli […] assessed as bacterial growth inhibition at 20 uM by CLSI protocol based broth microdilution method. It counts as functional. The settings on record: read-out: GI.
In data set [10] the test system is Pseudomonas aeruginosa. Briefly: Antibacterial activity against Pseudomonas aeruginosa PA01 assessed as bacterial growth inhibition at 20 uM by CLSI protocol based broth microdilution method. It counts as functional. The settings on record: read-out: GI.
Data set [11] has as its system RAW264.7. The data set can be described thus: Immunostimulatory activity in mouse RAW264.7 cells assessed as increase in cell viability at 0.078 to 10 uM incubated for 48 hrs by CCK-8 assay. It counts as functional, cell-based. The settings on record: dose 0.078-10 µM. Background: Formazan colour is commonly taken as a measure of viable cells.
Data set [12] relates to RAW264.7. Briefly: Immunostimulatory activity in mouse RAW264.7 cells assessed as increase in ROS production by measuring fluorescence intensity at 1 uM incubated for 24 hrs by DCFH-DA staining based fluorescence microplate reader assay. It counts as functional, cell-based.

Consider `C[C@@H]1CC[C@@]23CCC(=O)C2[C@]1(C)[C@H](OC(=O)CO)C[C@@]1(C)[C@H](O)CO[C@H]1[C@@H]3C` (stereo partly drawn), for which the MIC is above 20 µM in data set [1] and 20 µM (≈ 7.89 µg/mL) in data set [2]. Besides, in data set [3], the inhibition of growth at 20 µM came to 34%. The result in data set [4] was inactive. For the same molecule, the Activity entry in [5] is “Non-Toxic”. In addition, the result in data set [6] and in [7] was Active.
For the molecule `C=C[C@@]1(C)C[C@H](C)[C@]23CC[C@@H](O)C2[C@@](C)([C@H](C)CC3)[C@H](OC(C)=O)C1` (stereo partly drawn), the values for the MIC in data set [1] and in data set [2] were above 20 µM and 2.5 µM (≈ 0.871 µg/mL), respectively. Moreover, in [4], the outcome was inactive. The Activity result in data set [5] is on record as “Non-Toxic”. Besides, the outcome in data set [7] was Active.
As to `CC(=O)OC[C@@H](O)[C@]1(C)C[C@@H](OC(=O)CO)[C@@]2(C)C3C(=O)CC[C@@]3(CC[C@H]2C)[C@@H](C)[C@@H]1O` (stereo partly drawn), the MIC in data set [1] and in data set [2] was above 20 µM in each case. Also, the inhibition of growth at 20 µM in data set [3] was 21%. Also, the result in data set [4] was inactive. The Activity entry in data set [5] is “Non-Toxic”. Also, the outcome in [8] and in data set [7] was Active.
In the case of `C=C[C@]1(C)C[C@@H](OC(=O)CO)[C@@]2(C)C3=CC(=O)C[C@@]3(CC[C@H]2C)[C@@H](C)[C@@H]1O`, the MIC in data set [1] was above 20 µM; in [2], 5 µM (≈ 1.88 µg/mL). Also, the outcome in data set [4] was inactive. Further, the Activity result in data set [5] is listed as “Non-Toxic”. Besides, the outcome in data set [7] was Active.
Consider `C=C[C@]1(C)C[C@@H](OC(=O)CO)[C@@]2(C)C3C(=O)[C@H](O)CC3(CC[C@H]2C)[C@@H](C)[C@@H]1O` (single isomer, unassigned), for which the results for the MIC in data set [1] and in data set [2] were 3.12 µM (≈ 1.23 µg/mL) and 1.25 µM (≈ 0.493 µg/mL), respectively. The inhibition of growth at 20 µM was found to be 52% in [9] and 70% in data set [3]. Further, the outcome in data set [4] was inactive. The Activity entry in data set [5] was “Non-Toxic”. Further, the result in data set [6], in data set [8] and in [7] was Active.
Regarding `C=C[C@@]1(C)C[C@H](C)[C@]23CCC(=O)C2[C@@](C)([C@H](C)CC3)[C@H](OC(C)=O)C1` (stereo partly drawn), the MIC was 12.5 µM (≈ 4.33 µg/mL) in data set [1] and 1.25 µM (≈ 0.433 µg/mL) in [2]. Moreover, in data set [4], the outcome was inactive. In addition, the Activity entry in data set [5] was “Non-Toxic”.
For the molecule `C=C[C@]1(C)C[C@@H](O)[C@@]2(C)C3CCC[C@@]3(CC[C@H]2C)[C@@H](C)C1` (stereo partly drawn), the MIC came out at 12.5 µM (≈ 3.63 µg/mL) in [1] and 20 µM (≈ 5.81 µg/mL) in data set [2]. Further, the outcome in data set [4] was inactive. For the same molecule, the Activity entry in [5] is listed as “Non-Toxic”. In data set [7], the outcome was Active.
On to `C=C[C@]1(C)C[C@@H](OC(=O)CO)[C@@]2(C)C3C(=O)CC[C@@]3(CC[C@H]2C)[C@@H](C)[C@@H]1O` (stereo partly drawn), for which the MIC amounted to 0.09 µM (≈ 0.0341 µg/mL) in data set [1] and 0.31 µM (≈ 0.117 µg/mL) in data set [2]. For the same molecule, the inhibition of growth at 20 µM in data set [3] worked out at 71%; in data set [10] it was 40%. Further, the Activity was 60% in data set [4], “Dose-Dependent Effect” in data set [11] and “Non-Toxic” in data set [5].
In the case of `C=C[C@]1(C)C[C@@H](OC(C)=O)[C@@]2(C)C3=CC(=O)C[C@@]3([C@H](O)C[C@H]2C)[C@@H](C)[C@@H]1O`, the MIC in [1] was above 20 µM; in data set [2], 5 µM (≈ 1.88 µg/mL). The result in [4] was inactive. Besides, in [5], the Activity entry is recorded as “Non-Toxic”. Further, the outcome in data set [8] and in [7] was Active.
Regarding `C=C[C@]1(C)C[C@@H](O)[C@@]2(C)C3[C@H](O)CC[C@@]3(CC[C@H]2C)[C@@H](C)C1` (stereo partly drawn), the MIC is 12.5 µM (≈ 3.83 µg/mL) in data set [1] and 20 µM (≈ 6.13 µg/mL) in data set [2]. The result in data set [4] was inactive. The Activity result in data set [5] is reported as “Non-Toxic”.
In the case of `C=C[C@]1(C)C[C@@H](OC(=O)CO[C@H]2O[C@H](CO)[C@@H](O)[C@H](O)[C@H]2O)[C@@]2(C)C3C(=O)CCC3(CC[C@H]2C)[C@@H](C)[C@@H]1O` (single isomer, unassigned), the MIC in [1] and in data set [2] was above 20 µM each time. The inhibition of growth at 20 µM in [3] was 21%. Further, the result in [4] was inactive. The Activity entry in [5] was “Non-Toxic”. In addition, the outcome in data set [6] and in data set [7] was Active.
For `C[C@@H]1CC[C@@]23CCC(=O)C2[C@]1(C)[C@H](OC(=O)CO)C[C@@](C)([C@H](O)CO)[C@@H](O)[C@@H]3C` (stereo partly drawn), the MIC in data set [1] was above 20 µM; in data set [2], 20 µM (≈ 8.25 µg/mL). Also, the inhibition of growth at 20 µM in data set [3] was 50%. The outcome in [4] was inactive. The Activity result in data set [5] is “Non-Toxic”. Also, the outcome in data set [6] and in data set [7] was Active.
Consider `C=C[C@]1(C)C[C@@H](OC(C)=O)[C@@]2(C)C3C(=O)CC[C@@]3(CC[C@H]2C)[C@@H](C)[C@@H]1O` (stereo partly drawn), for which the MIC was 0.39 µM (≈ 0.141 µg/mL) in data set [1] and 2.5 µM (≈ 0.906 µg/mL) in [2]. Also, the inhibition of growth at 20 µM is 61% in [3] and 51% in [10]. The Activity in data set [4] is 60%; in data set [11], “Dose-Dependent Effect”; in data set [5] it was “Non-Toxic”. Also, the result in [12] was Active.
For `C=C[C@]1(C)C[C@@H](O)[C@@]2(C)C3[C@H](O)CC[C@@]3(CC[C@H]2C)[C@@H](C)[C@@H]1O` (stereo partly drawn), the minimal inhibitory concentration (MIC) in [1] worked out at 12.5 µM (≈ 4.03 µg/mL); in data set [2], 20 µM (≈ 6.45 µg/mL). The result in data set [4] was inactive. In data set [5], the Activity result is given as “Non-Toxic”.
For `C=C[C@]1(C)C[C@@H](O)[C@@]2(C)C3C(=O)CC[C@@]3(CC[C@H]2C)[C@@H](C)[C@@H]1O` (stereo partly drawn), the MIC is 6.25 µM (≈ 2 µg/mL) in data set [1] and 5 µM (≈ 1.6 µg/mL) in [2]. For the same molecule, the result in data set [4] was inactive. In data set [5], the Activity result is reported as “Non-Toxic”. Also, in [12], the result was Active.
In the case of `C=C[C@]1(C)C[C@@H](OC(C)=O)[C@@]2(C)C3[C@H](O)CC[C@@]3(CC[C@H]2C)[C@@H](C)[C@@H]1O` (stereo partly drawn), the MIC in [1] amounted to 6.25 µM (≈ 2.28 µg/mL); in [2], 0.625 µM (≈ 0.228 µg/mL). Further, the inhibition of growth at 20 µM is 20% in data set [3] and 18% in [10]. The result in data set [4] was inactive. For the same molecule, in data set [5], the Activity entry was “Non-Toxic”. For the same molecule, the result in [7] was Active.
In the case of `C=C[C@]1(C)C[C@@H](O)[C@@]2(C)C3=CC(=O)C[C@@]3(CC[C@H]2C)[C@@H](C)[C@@H]1O`, the MIC in data set [1] and in [2] was above 20 µM each time. Further, the result in [4] was inactive. For the same molecule, the Activity entry in data set [5] is given as “Non-Toxic”. The outcome in [8] and in [7] was Active.
